We go through 1 compound from patent publication US4342751A (priority 1981, dated 1982).

The test system of data set [1] is Grape leaves (C. V. Niagara). The conditions noted are these: in vivo.
Data set [2] concerns Plasmopora viticola.

Numbered stars: 1 amine (or outer) side, 2 acyl side, 3 side chain; on linkers, the order of the positions; unused ones are H or OH. Square brackets hold non-standard residues; d marks the D form. Peptide text beside a SMILES is read from it. X1 = CCC(N[*:1])C(C)C(=O)O[C@H](C(=O)[*:2])[C@@H](C)CC; X2 = C[C@H](N[*:1])C(=O)C(C)(C)C(=O)[*:2]; NMeY = CN[C@@H](Cc1ccc(O)cc1)C(=O)O; NMeI = CC[C@H](C)[C@H](NC)C(=O)O; NMeV = CN[C@H](C(=O)O)C(C)C

`CCC1NC(=O)[C@H](C)NC(=O)C(C)(C)C(=O)[C@H](C)NC(=O)[C@H](Cc2ccc(OC)cc2)N(C)C(=O)[C@H](C(C)C)N(C)C(=O)CNC(=O)[C@H]([C@@H](C)CC)N(C)C(=O)CNC(=O)[C@H]([C@@H](C)CC)OC(=O)C1C` (stereo partly drawn) [Majusculamide C, majusculamide C] (cyclo(A[X1]G[NMeI]G[NMeV][NMeY](Me)[X2])): the “Phytotoxicity rating, grape leaves” value in data set [1] was determined as 0. Also, the “In vivo effectiveness against grape downy mildew” value in data set [2] is recorded as “effective”. For the same compound, the Control of fungus result in data set [2] (in vivo) is reported as “control”.
